Among the test systems are ACHN renal; CCRF-CEM leukemia; HCC-2998 colon; HT29 colon; IGROV1 ovarian; KM12 colon; M14 melanoma; MALME-3M melanoma; MCF7 breast; NCI-H522 lung; OVCAR-4 ovarian; T-47D breast; SNB-19 CNS; PC-3 prostate.
Holding throughout (test): growth of human tumour cells (NCI), 48 h

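Cultured in 96-well plates, cells were exposed to test compound for 48 hours across five concentrations. TGI is the concentration that stops growth completely.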

As for `Clc1sc(Cl)c2c1[C@H](Cl)C[C@@H]2Cl`, the TGI with ACHN renal was 95 µM; with CCRF-CEM leukemia, greater than 100 µM; with HCC-2998 colon, 33.4 µM; in the experiment on HT29 colon, greater than 100 µM; in the experiment on IGROV1 ovarian, 38.6 µM; in the experiment on KM12 colon, greater than 100 µM. Moreover, the TGI with M14 melanoma was 37.4 µM; in the experiment with MALME-3M melanoma it was 59.6 µM; in the experiment on MCF7 breast, greater than 100 µM; in the experiment on NCI-H522 lung it was 3.31 µM; in the experiment with OVCAR-4 ovarian it was 52.7 µM; in the experiment with T-47D breast, 72.9 µM.
Turning to `C/C(=C\COP(=O)(O)OP(=O)(O)O)CCCCCCOCc1ccccc1`, the TGI in the experiment on ACHN renal, in the experiment with CCRF-CEM leukemia, in the experiment on HCC-2998 colon, with HT29 colon, in the experiment on IGROV1 ovarian and in the experiment on KM12 colon was greater than 100 µM throughout. For the same molecule, the TGI in the experiment on M14 melanoma, in the experiment with MALME-3M melanoma, with MCF7 breast, in the experiment with NCI-H522 lung, in the experiment on OVCAR-4 ovarian and in the experiment with SNB-19 CNS was greater than 100 µM throughout. This molecule also showed a TGI in the experiment on T-47D breast greater than 100 µM.
Regarding `COc1ccc(Cc2cc(Cc3ccc(OC)cc3)cc(Cc3ccc(OC)cc3)c2)cc1`, the TGI with ACHN renal, with HCC-2998 colon, with HT29 colon, with IGROV1 ovarian, in the experiment on KM12 colon and in the experiment with M14 melanoma was greater than 100 µM throughout. Besides, the TGI in the experiment with MALME-3M melanoma, in the experiment with MCF7 breast, in the experiment with NCI-H522 lung, in the experiment on OVCAR-4 ovarian, in the experiment with PC-3 prostate and in the experiment on SNB-19 CNS was greater than 100 µM each time. In the experiment on T-47D breast, this molecule gave a TGI greater than 100 µM.
On to `CNc1cc([N+](=O)[O-])ccc1C(=O)N1CCC[C@H]1CO`, for which the TGI with ACHN renal, in the experiment on HT29 colon, in the experiment with IGROV1 ovarian, in the experiment with KM12 colon, in the experiment with M14 melanoma and in the experiment with MCF7 breast was greater than 100 µM each time. Also, the TGI with NCI-H522 lung, in the experiment on PC-3 prostate, with SNB-19 CNS and in the experiment on T-47D breast was greater than 100 µM in each case.
Consider `CCOC(=O)C1=C(C)N(c2ccc(Cl)cc2)C2(O)C=CC(=O)C3=C(O)c4ccccc4C(=O)C312` (configuration not stated), for which the TGI in the experiment on ACHN renal was 16.4 µM; in the experiment with CCRF-CEM leukemia, 6.69 µM; in the experiment with IGROV1 ovarian it was 12.9 µM; with KM12 colon, 20.4 µM; with M14 melanoma it was 12.4 µM; in the experiment with MALME-3M melanoma it was 4.53 µM. Further, the TGI worked out at 8.72 µM in the experiment on MCF7 breast; 6.45 µM in the experiment on NCI-H522 lung; 8.33 µM in the experiment on OVCAR-4 ovarian; 15.8 µM with PC-3 prostate; 33.1 µM in the experiment on SNB-19 CNS; 15.8 µM in the experiment on T-47D breast.
As to `CC1(C)Cc2c(sc3[nH]c(=S)[nH]c(=S)c23)CS1`, the TGI with CCRF-CEM leukemia was greater than 100 µM; in the experiment on HT29 colon, greater than 100 µM; in the experiment on IGROV1 ovarian, greater than 100 µM; in the experiment with KM12 colon, greater than 100 µM; with M14 melanoma it was greater than 100 µM; in the experiment on MALME-3M melanoma it was 75.6 µM. Moreover, the TGI in the experiment with MCF7 breast is greater than 100 µM; in the experiment on OVCAR-4 ovarian, 65.8 µM; in the experiment on PC-3 prostate it was greater than 100 µM; in the experiment with SNB-19 CNS, greater than 100 µM; with T-47D breast, 61.4 µM.
`CC1(c2ccccc2)O[C@@H]2C[C@H]3[C@@H]4CCC5=CC(=O)C=C[C@]5(C)[C@@]4(F)[C@@H](O)C[C@]3(C)[C@]2(C(=O)CO)O1` (some centres not stated): the TGI in the experiment on ACHN renal worked out at 34.8 µM; in the experiment with HCC-2998 colon, 33.3 µM; in the experiment on HT29 colon, 32.4 µM; in the experiment with IGROV1 ovarian, 38.7 µM; in the experiment on KM12 colon it was 30 µM; in the experiment on M14 melanoma it was 30.6 µM. Further, the TGI with MALME-3M melanoma was determined as 27.5 µM; in the experiment with MCF7 breast, 29.9 µM; in the experiment with NCI-H522 lung it was 25 µM; in the experiment with OVCAR-4 ovarian, 28.3 µM; in the experiment on PC-3 prostate it was 30.9 µM; in the experiment on SNB-19 CNS it was 63.7 µM. In addition, the TGI with T-47D breast stood at 41 µM.
Regarding `N#Cc1c(Cl)cc(C#N)n2c1nc1ccccc12`, the TGI with ACHN renal stood at 28.7 µM; in the experiment on HCC-2998 colon, 40.9 µM; with HT29 colon, 21.4 µM; with IGROV1 ovarian it was 28.3 µM; with KM12 colon, 23.2 µM; in the experiment on M14 melanoma, 22.2 µM. The TGI in the experiment with MALME-3M melanoma was 18.5 µM; in the experiment on MCF7 breast it was 24.9 µM; in the experiment on NCI-H522 lung it was 5.69 µM; with OVCAR-4 ovarian, 41.9 µM; with PC-3 prostate it was 32.6 µM; in the experiment on SNB-19 CNS it was greater than 84.7 µM. The molecule further showed a TGI in the experiment on T-47D breast of 11.1 µM.
On to `CC[C@H](C)[C@@H]([C@@H](CC(=O)N1CCC[C@H]1[C@H](OC)[C@@H](C)C(=O)NCCc1ccccc1)OC)N(C)C(=O)C(NC(=O)[C@H](C(C)C)N(C)C)C(C)C` (some centres not stated), for which the TGI in the experiment with ACHN renal was greater than 10 µM; in the experiment with HCC-2998 colon, 0.00228 µM; in the experiment on HT29 colon, 0.00163 µM; in the experiment with KM12 colon, 0.00178 µM; in the experiment with M14 melanoma, 0.000855 µM; in the experiment on MALME-3M melanoma, greater than 10 µM. Further, the TGI is greater than 10 µM in the experiment with MCF7 breast, 0.000434 µM with NCI-H522 lung, greater than 10 µM in the experiment on OVCAR-4 ovarian and greater than 10 µM with T-47D breast.
Regarding `Cc1ccc(N2C(=O)C3c4[nH]c5ccc(C)cc5c4C4CCC(C(C)(C)C)CC4C3C2=O)cc1` (configuration not stated), the TGI in the experiment on CCRF-CEM leukemia is 26.7 µM; in the experiment with HT29 colon, 75.5 µM; with IGROV1 ovarian, 36.5 µM; in the experiment with KM12 colon, 62.4 µM; in the experiment with M14 melanoma, greater than 100 µM; in the experiment with MALME-3M melanoma, 44.4 µM. Moreover, the TGI is 28.7 µM in the experiment on MCF7 breast; 39.4 µM in the experiment with NCI-H522 lung; 20.9 µM in the experiment with OVCAR-4 ovarian; 70.3 µM in the experiment with PC-3 prostate; 80.5 µM in the experiment with SNB-19 CNS; 25.9 µM in the experiment on T-47D breast.
In the case of `O=C(Sc1c(-c2ccccc2)c(=O)n(-c2ccccc2)c(=S)n1-c1ccccc1)c1ccccc1`, the TGI in the experiment with ACHN renal is greater than 100 µM; with CCRF-CEM leukemia, 76.3 µM; in the experiment on HT29 colon it was greater than 100 µM; in the experiment with IGROV1 ovarian it was greater than 100 µM; in the experiment on KM12 colon it was greater than 100 µM; with M14 melanoma it was greater than 100 µM. Also, the TGI with MALME-3M melanoma, with MCF7 breast, in the experiment on NCI-H522 lung, in the experiment with OVCAR-4 ovarian, with PC-3 prostate and with SNB-19 CNS was greater than 100 µM throughout. The molecule further returned a TGI in the experiment with T-47D breast greater than 100 µM.

Values taken from PubChem BioAssay (NCI).
